The source of these data is ChEMBL document CHEMBL3612013, “Cyclodextrin complexation highly enhances efficacy of arylsulfonylureido benzenesulfonamide carbonic anhydrase inhibitors as a topical antiglaucoma agents” (Bioorg Med Chem, 2015).

≈ marks a conversion by molar mass, not a printed value.

The nature of data set [1]: Aqueous solubility in pH 7.4 PBS incubated for 48 hrs at 25 degC by spectrophotometry. The class given is physicochemical.
Data set [2] is described as follows: Aqueous solubility in pH 7.4 PBS in presence of gamma-cyclodextrin incubated for 48 hrs at 25 degC by spectrophotometry. As to conditions: PBS with gamma-cyclodextrin. The class given is physicochemical.
Data set [3] can be described thus: Aqueous solubility in pH 7.4 PBS in presence of hydroxypropyl-gamma cyclodextrin incubated for 48 hrs at 25 degC by spectrophotometry. The class given is physicochemical. As to conditions: PBS with hydroxypropyl-gamma cyclodextrin.
Data set [4] can be described thus: Aqueous solubility in pH 7.4 PBS in presence of hydroxypropyl-alpha cyclodextrin incubated for 48 hrs at 25 degC by spectrophotometry. The conditions noted are these: PBS with hydroxypropyl-alpha cyclodextrin. The class given is physicochemical.
Data set [5] in a line: Aqueous solubility in pH 7.4 PBS in presence of sulfobutyl-ether-beta cyclodextrin incubated for 48 hrs at 25 degC by spectrophotometry. The class given is physicochemical. As to conditions: PBS with sulfobutyl-ether-beta cyclodextrin.
Data set [6] is described as follows: Aqueous solubility in pH 7.4 PBS in presence of hydroxypropyl-beta cyclodextrin incubated for 48 hrs at 25 degC by spectrophotometry. The class given is physicochemical. The conditions noted are these: PBS with hydroxypropyl-beta cyclodextrin.
Data set [7] can be described thus: Aqueous solubility in pH 7.4 PBS in presence of hydroxyethyl-beta cyclodextrin incubated for 48 hrs at 25 degC by spectrophotometry. Format: physicochemical. As to conditions: PBS with hydroxyethyl-beta cyclodextrin.
A short description of data set [8]: Stability of the compound. Format: physicochemical.
For data set [9], the system named is Oryctolagus cuniculus. Description: Antiglaucoma activity in New Zealand albino rabbit model of carbomer-induced hypertensive eye glaucoma assessed as time duration showing reduction in intraocular pressure at 0.07% using compound complexed with cyclodextrin directly instilled into conjunctive pocket measured 24 hrs post drug administration. Format: functional.

Data set [10] relates to Oryctolagus cuniculus. Description: Antiglaucoma activity in New Zealand albino rabbit model of carbomer-induced hypertensive eye glaucoma assessed as intraocular pressure at 0.07% using compound complexed with cyclodextrin directly instilled into conjunctive pocket measured 1 hr post drug administration (reference value: 45 to 50 mmHg). Format: functional.
The test system of data set [11] is Oryctolagus cuniculus. Description: Antiglaucoma activity in New Zealand albino rabbit model of carbomer-induced hypertensive eye glaucoma assessed as intraocular pressure at 0.07% using compound complexed with cyclodextrin directly instilled into conjunctive pocket measured 24 hrs post drug administration (reference value: 45 to 50 mmHg). Format: functional.

In data set [12] the test system is Oryctolagus cuniculus. Description: Toxicity in New Zealand albino rabbit model of carbomer-induced hypertensive eye glaucoma assessed as induction of eye irritation at 2% directly instilled into conjunctive pocket measured 24 hrs post drug administration. As to conditions: in vivo, topical_or_ocular. Format: organism-based.
Data set [13] relates to Oryctolagus cuniculus. Description: Toxicity in New Zealand albino rabbit model of carbomer-induced hypertensive eye glaucoma assessed as induction of eye irritation at 0.07% using compound complexed with cyclodextrin directly instilled into conjunctive pocket measured 24 hrs post drug administration. As to conditions: in vivo, topical_or_ocular. Format: organism-based.

Data set [14] in a line: Equilibrium solubility in pH 7.4 PBS in presence of hydroxypropyl-gamma cyclodextrin incubated for 48 hrs at 25 degC by spectrophotometry. Format: physicochemical. As to conditions: PBS with hydroxypropyl-gamma cyclodextrin.
Data set [15] has as its system Oryctolagus cuniculus. Briefly: Antiglaucoma activity in New Zealand albino rabbit model of carbomer-induced hypertensive eye glaucoma assessed as time duration showing reduction in intraocular pressure at 0.37% using compound complexed with cyclodextrin directly instilled into conjunctive pocket measured 24 hrs post drug administration. The class given is functional.

The subject of data set [16] is Oryctolagus cuniculus. Description: Antiglaucoma activity in New Zealand albino rabbit model of carbomer-induced hypertensive eye glaucoma assessed as intraocular pressure at 0.37% using compound complexed with cyclodextrin directly instilled into conjunctive pocket measured 1 hr post drug administration (reference value: 45 to 50 mmHg). The class given is functional.

Data set [17] relates to Oryctolagus cuniculus. Description: Antiglaucoma activity in New Zealand albino rabbit model of carbomer-induced hypertensive eye glaucoma assessed as intraocular pressure at 0.37% using compound complexed with cyclodextrin directly instilled into conjunctive pocket measured 24 hrs post drug administration (reference value: 45 to 50 mmHg). The class given is functional.

The subject of data set [18] is Oryctolagus cuniculus. Briefly: Toxicity in New Zealand albino rabbit model of carbomer-induced hypertensive eye glaucoma assessed as induction of eye irritation at 0.37% using compound complexed with cyclodextrin directly instilled into conjunctive pocket measured 24 hrs post drug administration. Format: organism-based. The conditions noted are these: in vivo, topical_or_ocular.

As for `Cc1ccc(S(=O)(=O)NC(=O)NCCc2ccc(S(N)(=O)=O)cc2)cc1`, the solubility (as a rule, the dissolved amount per volume that the medium holds) at 48 h in [1] amounted to 87 µg/mL (≈ 219 µM); in data set [2] it was 232 µg/mL; in [3] it was 278 µg/mL; in [4] it was 141 µg/mL; in [5] it was 174 µg/mL; in [6], 212 µg/mL. In addition, in [7], the solubility at 48 h was determined as 203 µg/mL. The compound further yielded a K in [8] of 143.75 M⁻¹. The Time in the data set on Oryctolagus cuniculus [9] worked out at 20 h. Also, the Activity with Oryctolagus cuniculus [10] is reported as 36 mmHg; with Oryctolagus cuniculus [11], 35 mmHg; with Oryctolagus cuniculus [12], “Toxic”; with Oryctolagus cuniculus [13], “Toxic”. For the same compound, the solubility (thermodynamic) (commonly solubility found after equilibrating the solid with the medium) at 48 h in data set [14] was 700 µg/mL.
Take `NS(=O)(=O)c1ccc(CCNC(=O)NS(=O)(=O)c2ccc(F)cc2)cc1`: the solubility at 48 h in data set [1] is 972 µg/mL (≈ 2420 µM); in data set [2] it was 2260 µg/mL; in [3], 2330 µg/mL; in data set [4], 1580 µg/mL; in [5], 1810 µg/mL; in [6] it was 2170 µg/mL. Further, in [7], the solubility at 48 h turned out to be 2240 µg/mL. In [8], this compound registered a K of 76.3 M⁻¹. Further, the Time in the data set on Oryctolagus cuniculus [15] was found to be 20 h. Besides, the Activity with Oryctolagus cuniculus [16] is given as 36 mmHg; in the data set on Oryctolagus cuniculus [17] it was 35 mmHg; with Oryctolagus cuniculus [12] it was “Toxic”; in the data set with Oryctolagus cuniculus [18] it was “Toxic”. For the same compound, in [14], the solubility (thermodynamic) at 48 h turned out to be 3700 µg/mL.
